From USRE39591E1, “6-O-substituted ketolides having antibacterial activity” (Abbott Laboratories, priority 1996, dated 2007)
In brackets after ≈: the same amount, converted by molar mass.

System: up to 32 different microorganisms
Assay: in vitro antibacterial activity (MIC), agar dilution on Brain Heart Infusion (BHI) agar with Steers replicator
Type: cell-based
Conditions: unit assumed
Procedure, shortened: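 Agar dilution, 12 plates/compound; inoc 1:100 (1:10 Micrococcus, Streptococcus); 35°-37° C, 20–24 h. Erythromycin A reference plate plus drug-free growth controls at start and end. Endpoint = no growth/slight haze/sparse colonies.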

Structure (SMILES): CC[C@H]1OC(=O)[C@H](C)C(=O)[C@H](C)[C@@H](O[C@@H]2O[C@H](C)C[C@H](N(C)C)[C@H]2O)[C@@](C)(OCCNCCCCc2ccccc2)C[C@@H](C)C(=O)[C@H](C)[C@H]2NC(=O)O[C@@]21C [Example 224]
- MIC (organism code AA): 0.39 µg/mL (≈ 0.504 µM)
- MIC (organism code BB): 0.2 µg/mL (≈ 0.258 µM)
- MIC (organism code CC): > 100 µg/mL
- MIC (organism code DD): 0.2 µg/mL (≈ 0.258 µM)
- MIC (organism code EE): 0.2 µg/mL (≈ 0.258 µM)
- MIC (organism code FF): 0.2 µg/mL (≈ 0.258 µM)
- MIC (organism code GG): > 100 µg/mL
- MIC (organism code HH): 0.39 µg/mL (≈ 0.504 µM)
- MIC (organism code II): 0.01 µg/mL (≈ 0.0129 µM)
- MIC (organism code JJ): 0.01 µg/mL (≈ 0.0129 µM)
- MIC (organism code KK): ≤ 0.005 µg/mL
- MIC (organism code LL): 0.01 µg/mL (≈ 0.0129 µM)
- MIC (organism code MM): > 100 µg/mL
- MIC (organism code NN): 0.2 µg/mL (≈ 0.258 µM)
- MIC (organism code OO): 0.02 µg/mL (≈ 0.0258 µM)
- MIC (organism code PP): 0.2 µg/mL (≈ 0.258 µM)
- MIC (organism code QQ): 25 µg/mL (≈ 32.3 µM)
- MIC (organism code RR): 0.2 µg/mL (≈ 0.258 µM)
- MIC (organism code SS): 25 µg/mL (≈ 32.3 µM)
- MIC (organism code TT): > 100 µg/mL
- MIC (organism code UU): 3.1 µg/mL (≈ 4.01 µM)
- MIC (organism code VV): 0.1 µg/mL (≈ 0.129 µM)
- MIC (organism code WW): 4 µg/mL (≈ 5.17 µM)
- MIC (organism code XX): 0.03 µg/mL (≈ 0.0388 µM)
- MIC (organism code YY): 0.03 µg/mL (≈ 0.0388 µM)
- MIC (organism code ZZ): > 128 µg/mL
- MIC (organism code ZZA): 2 µg/mL (≈ 2.58 µM)

Structure (SMILES): CC[C@H]1OC(=O)[C@H](C)C(=O)[C@H](C)[C@@H](O[C@@H]2O[C@H](C)C[C@H](N(C)C)[C@H]2O)[C@@](C)(OCC=Cc2ccc(OC)cc2)C[C@@H](C)C(=O)[C@H](C)[C@@H](O)[C@]1(C)O [Example 16, Compound of Formula (VIII): X is O, R is —CH2CH═CH-(4-methoxyphenyl)]
- MIC (Candida albicans CCH 442 (code TT)): > 100 µg/mL
- MIC (Enterococcus faecism ATCC 8043 (code II)): 0.78 µg/mL
- MIC (Escherichia coli DC-2 (code SS)): > 100 µg/mL
- MIC (Escherichia coli JUHL (code QQ)): > 100 µg/mL
- MIC (Escherichia coli SS (code RR)): 6.2 µg/mL
- MIC (Haemophilis influenzae DILL AMP R (code WW)): 128 µg/mL
- MIC (Micrococcus luteus ATCC 4698 (code PP)): 0.78 µg/mL
- MIC (Micrococcus luteus ATCC 9341 (code OO)): 0.2 µg/mL
- MIC (Mycobacterium smegmatis ATCC 114 (code UU)): 3.2 µg/mL
- MIC (Nocardia Asteroides ATCC9970 (code VV)): 1.56 µg/mL
- MIC (Staphylococcus aureus 1775 (code GG)): > 100 µg/mL
- MIC (Staphylococcus aureus A5177 (code BB)): 1.56 µg/mL
- MIC (Staphylococcus aureus A-5278 (code CC)): > 100 µg/mL
- MIC (Staphylococcus aureus ATCC 6538P (code AA)): 1.56 µg/mL
- MIC (Staphylococcus aureus CMX 553 (code FF)): 1.56 µg/mL
- MIC (Staphylococcus aureus CMX 642A (code DD)): 1.56 µg/mL
- MIC (Staphylococcus aureus NCTC10649M (code EE)): 1.56 µg/mL
- MIC (Staphylococcus epidermidis 3519 (code HH)): 1.56 µg/mL
- MIC (Streptococcus Pneumonia 5649 (code ZZA)): 2 µg/mL
- MIC (Streptococcus Pneumonia 5979 (code ZZ)): 128 µg/mL
- MIC (Streptococcus Pneumonia ATCC6303 (code XX)): 1 µg/mL
- MIC (Streptococcus Pneumonia GYR 1171 (code YY)): 0.25 µg/mL
- MIC (Streptococcus agalactiae CMX 508 (code KK)): 0.39 µg/mL
- MIC (Streptococcus bovis A-5169 (code JJ)): 0.2 µg/mL
- MIC (Streptococcus pyogenes 930 (code MM)): > 100 µg/mL
- MIC (Streptococcus pyogenes EES61 (code LL)): 0.39 µg/mL
- MIC (Streptococcus pyogenes PIU 2548 (code NN)): 0.78 µg/mL
